Results: patent US5506256A, “Proline derivatives possessing prolyl endopeptidase-inhibitory activity” (Yoshitomi Pharmaceutical Industries, Ltd., priority 1990, dated 1996)

How the values were obtained:
[1] = target: T1, prolyl endopeptidase (Rattus norvegicus, UniProt O70196); test: Prolyl endopeptidase-inhibitory activity; assay type: biochemical; details: for IC50: prolyl endopeptidase extracted from rat brain, pH 7.0, 30° C., read-out: IC50
T1 construct: prolyl endopeptidase extracted from rat brain; from tissue; host or cells: rat brain
T1 sequence (O70196 whole entry): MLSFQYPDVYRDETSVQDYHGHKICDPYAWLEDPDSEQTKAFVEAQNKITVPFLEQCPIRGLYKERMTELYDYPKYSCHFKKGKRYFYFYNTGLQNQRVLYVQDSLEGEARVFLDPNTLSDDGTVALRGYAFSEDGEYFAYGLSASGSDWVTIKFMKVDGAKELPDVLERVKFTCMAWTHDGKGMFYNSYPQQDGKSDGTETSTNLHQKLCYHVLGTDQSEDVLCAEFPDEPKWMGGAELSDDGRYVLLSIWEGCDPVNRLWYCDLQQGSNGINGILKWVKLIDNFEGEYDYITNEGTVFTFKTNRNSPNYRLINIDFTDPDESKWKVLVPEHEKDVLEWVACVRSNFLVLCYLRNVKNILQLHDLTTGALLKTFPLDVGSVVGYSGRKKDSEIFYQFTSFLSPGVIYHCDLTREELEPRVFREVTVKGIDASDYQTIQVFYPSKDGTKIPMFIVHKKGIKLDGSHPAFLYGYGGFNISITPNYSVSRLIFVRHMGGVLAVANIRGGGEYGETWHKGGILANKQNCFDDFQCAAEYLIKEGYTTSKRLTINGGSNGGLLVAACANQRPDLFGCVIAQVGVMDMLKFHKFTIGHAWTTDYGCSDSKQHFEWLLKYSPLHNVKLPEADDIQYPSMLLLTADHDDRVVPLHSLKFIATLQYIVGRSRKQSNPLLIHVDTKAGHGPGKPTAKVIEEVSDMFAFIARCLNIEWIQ
Method: Prolyl endopeptidase-inhibitory activity
A mixture of a 0.1M potassium sodium phosphate buffer (pH 7.0) (2675 μl), a solution of the compounds of the present invention in a 0.1M potassium sodium phosphate buffer (pH 7.0) (100 μl) and a solution of prolyl endopeptidase extracted from rat brain in a 25 mM sodium phosphate buffer (100 μl) [123 unit/1, pH 6.8, containing 1 mM dithiothreitol and 0.5 mM EDTA, prepared by the method described in J. Neurochem., 35, 527 (1980)]was preincubated at 30° C. for 30 minutes. Thereto was added a 0.2 mM solution of 7-(N-succinyl-glycyl-prolyl)-4-methylcoumarinamide (Peptide Institute, INC.) in a 0.1M potassium sodium phosphate buffer (pH 7.0) (125 μl), and the mixture was incubated at 30° C. for 1 hour. The reaction mixture was immersed in ice (0° C.) to terminate the reaction, and the fluorescence (a1) was determined ten minutes later (excitation at 370 nm and emission at 440 nm). Concurrently, there were conducted the experiment wherein, in the above system, the prolyl endopeptidase solution was substituted for a 25 mM sodium phosphate buffer (pH 6.8, containing 1 mM dithiothreitol and 0.5 mM EDTA) and the experiment wherein the solution of the compounds of the present invention was substituted for a 0.1M potassium sodium phosphate buffer (pH 7.0). Each fluorescence (a2 and a3) was determined respectively [See Tanpakushitsu Kakusan Koso, 29, 127 (1984)]. The prolyl endopeptidase-inhibition rate was calculated by the following formula, and IC50, a concentration of a compound producing 50% inhibition, was estimated by semilogarithmic graph paper. [formula] […]

[2] = target: T2, trypsin (Bos taurus, UniProt P00760); test: Determination of trypsin-inhibitory activity; assay type: biochemical, bovine; details: read-out: inhibition rate, trypsin
T2 construct: purchased Sigma; host or cells: bovine pancreas
T2 sequence (P00760 24-246): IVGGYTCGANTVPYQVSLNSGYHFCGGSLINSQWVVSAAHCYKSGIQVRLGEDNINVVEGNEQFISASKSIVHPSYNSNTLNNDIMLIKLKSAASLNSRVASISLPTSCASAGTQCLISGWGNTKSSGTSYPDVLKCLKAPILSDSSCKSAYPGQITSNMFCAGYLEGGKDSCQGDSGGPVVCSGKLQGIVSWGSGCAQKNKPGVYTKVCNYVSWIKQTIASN
Method: (§1) The methods for the measurement of inhibitory activities against various proteases and the method for calculating the inhibition rate are as follows.
Determination of trypsin-inhibitory activity
In the present invention, a 50 mM Tris-HCl buffer (pH 8.0) was employed as a buffer for measurement.
To a mixture of the above-mentioned buffer (850 μl), a solution of the compounds of the present invention in the same buffer (50 μl) and a 0.02 μM solution of trypsin (derived from bovine pancreas, Sigma) in the same buffer (50 μl) was added a 200 μM solution of 7-(prolyl-phenylaranyl-arginyl)-4-methylcoumarinamide (Peptide Institute, Inc.) in the same buffer (50 μl),and the mixture was incubated at 30° C. for 1 hour. The reaction mixture was immersed in ice (0° C.) to terminate the reaction, and the fluorescence (b1) was determined 1 hour later (excitation at 370 nm and emission at 440 nm). Concurrently, there were conducted the experiment wherein, in the system above, the trypsin solution was substituted for a buffer alone, and the experiment wherein the solution of the compounds of the present invention was substituted for a buffer above. Each fluorescence (b2 and b3) was determined respectively.
(§2) Using the fluorescence x1, x2 and x3 measured in the abovementioned manner, the inhibitory rate against various proteases was calculated by the following formula where x stands for b, c, d, e or f: [formula]

[3] = target: T3, chymotrypsin (Bos taurus, UniProt P00766); test: Determination of chymotrypsin-inhibitory activity; assay type: biochemical, bovine; details: read-out: inhibition rate, chymotrypsin
T3 construct: purchased Sigma; host or cells: bovine pancreas
Method: as §1
Determination of chymotrypsin-inhibitory activity
Similarly, by following the procedure mentioned above, but employing a 50 mM Tris-HCl buffer (pH 8.0) as a buffer for measurement, a 0.2 μM solution of chymotrypsin (derived from bovine pancreas, Sigma) in the same buffer as an enzyme solution and a […] solution of 7-(N-succinyl-leucyl-leucyl-valyl-tyrosyl)-4-methylcoumarinamide (Peptide Institute, Inc.) in the same buffer as a substrate solution, each fluorescence (c1, c2 and c3) was determined, respectively.
as §2

[4] = tested on: leucine aminopeptidase; test: Determination of leucine aminopeptidase-inhibitory activity; assay type: biochemical, swine; set-up: unit not given here
Method: as §1
Determination of leucine aminopeptidase-inhibitory activity
Similarly, by following the procedure mentioned above, but employing a 50 mM Tris-HCl buffer (pH 8.0) as a buffer for measurement, a […] solution of leucine aminopeptidase (derived from swine kidney, Sigma) in the same buffer as an enzyme solution and a 200 μM solution of 7-leucyl-4-methyl-coumarinamide (Peptide Institute, Inc.) in the same buffer as a substrate solution, each fluorescence (d1, d2 and d3) was determined, respectively.
as §2

[5] = target: T4, elastase (Sus scrofa, UniProt P00772); test: Determination of elastase-inhibitory activity; assay type: biochemical, swine; details: read-out: inhibition rate, elastase
T4 construct: purchased Sigma; host or cells: swine pancreas
T4 sequence (P00772 27-266): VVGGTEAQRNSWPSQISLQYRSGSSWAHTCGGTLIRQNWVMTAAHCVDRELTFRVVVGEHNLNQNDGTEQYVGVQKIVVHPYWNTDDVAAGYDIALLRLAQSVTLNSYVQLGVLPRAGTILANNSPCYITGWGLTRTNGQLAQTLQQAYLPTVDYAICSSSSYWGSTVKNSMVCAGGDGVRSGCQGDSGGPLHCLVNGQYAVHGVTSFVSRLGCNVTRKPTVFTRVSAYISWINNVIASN
Method: as §1
Determination of elastase-inhibitory activity
Similarly, by following the procedure mentioned above, but employing a 1 mM Tris-HCl buffer (pH 8.5) as a buffer for measurement, a 0.2 μM solution of elastase (derived from swine pancreas, Sigma) in the same buffer as an enzyme solution and a 200 μM solution of 7-(N-succinyl-aranyl-prolyl-aranyl)-4-methylcoumarinamide (Peptide Institute, Inc.) in the same buffer as a substrate solution, each fluorescence (e1, e2 and e3) was determined, respectively.
as §2

[6] = target: T5, cathepsin B (Bos taurus, UniProt P07688); test: Determination of cathepsin B-inhibitory activity; assay type: biochemical, bovine; details: read-out: inhibition rate, cathepsin B
T5 construct: purchased Sigma; host or cells: bovine spleen
Method: as §1
Determination of cathepsin B-inhibitory activity
Similarly, by following the procedure mentioned above, but employing a 100 mM sodium phosphate buffer (pH 6.0; containing 1.33 mM EDTA Na2) as a buffer for measurement, a 0.02 μM solution of cathepsin B (derived from bovine spleen, Sigma) in the same buffer as an enzyme solution and a 200 μM solution of 7-(N-benzyloxycarbonyl-phenylaranyl-arginyl)-4-methylcoumarinamide (Peptide Institute, Inc.) in the same buffer as a substrate solution, each fluorescence (f1, f2 and f3) was determined, respectively.
as §2

[7] = read-out: inhibition rate, prolyl endopeptidase

| Structure (SMILES) | inhibition at 0.1 µM [1, 7] | IC50 [1] | inhibition at 0.1 µM [2] | inhibition at 0.1 µM [3] | inhibition rate, leucine aminopeptidase ([4]; 0.1 μM) | inhibition at 0.1 µM [5] | inhibition at 0.1 µM [6] | inhibition at 1 µM ([1]; 1 μM, read-out: inhibition rate, prolyl endopeptidase) | inhibition at 1 µM ([2]; 1 μM) | inhibition at 1 µM ([3]; 1 μM) | inhibition rate, leucine aminopeptidase ([4]; 1 μM) | inhibition at 1 µM ([5]; 1 μM) | inhibition at 1 µM ([6]; 1 μM) |
| --- | --- | --- | --- | --- | --- | --- | --- | --- | --- | --- | --- | --- | --- |
| COc1ccc(CNC(=O)N2CCC[C@H]2C(=O)N2CCC[C@H]2C(=O)C[S@+]([O-])c2ccc(OC)cc2)cc1 [Compound 24, (2S)-1-[N-(4-Methoxybenzylaminocarbonyl)-L-prolyl]-2-{[(S)-4-methoxyphenylsulfinyl]acetyl}pyrrolidine] | 99% | 0.5 nM | 0% | 0% | 0 | 0% | 0% | – | – | – | – | – | – |
| COc1ccc(CNC(=O)N2CCC[C@H]2C(=O)N2CCC[C@H]2C(=O)COc2ccc(OC)cc2)cc1 [Compound 25, (2S)-1-[N-(4-Methoxybenzylaminocarbonyl)-L-prolyl]-2-(4-methoxyphenoxyacetyl)pyrrolidine] | 97% | 2.5 nM | 0% | 0% | 0 | 0% | 0% | – | – | – | – | – | – |
| O=C(COc1ccc(Cl)cc1)[C@@H]1CCCN1C(=O)[C@@H]1CCCN1C(=O)CCc1ccccc1 [Compound 26, (2S)-2-(4-Chlorophenoxyacetyl)-1-[N-(3-phenylpropionyl)-L-prolyl]pyrrolidine] | – | 4.5 nM | – | – | – | – | – | 99% | 0% | 0% | 0 | 0% | 0% |
| O=C(COc1ccc(O)cc1)[C@@H]1CCCN1C(=O)[C@@H]1CCCN1C(=O)CCc1ccccc1 [Compound 27, (2S)-2-(4-Hydroxyphenoxyacetyl)-l-[N-(3-phenylpropionyl)-L-prolyl]pyrrolidine] | 96% | 2.5 nM | 0% | 0% | 0 | 0% | 0% | – | – | – | – | – | – |
| O=C(COc1ccc(Cl)cc1)[C@@H]1CCCN1C(=O)[C@@H]1CCCN1C(=O)NCc1ccc(Cl)cc1 [Compound 28, (2S)-1-[N-(4-Chlorobenzylaminocarbonyl)-L-prolyl]-2-(4-chlorophenoxyacetyl)pyrrolidine] | 97% | 15 nM | 0% | 0% | 0 | 0% | 0% | – | – | – | – | – | – |
| O=C(COc1ccc(F)cc1)[C@@H]1CCCN1C(=O)[C@@H]1CCCN1C(=O)NCc1ccc(F)cc1 [Compound 29, (2S)-1-[N-(4-Fluorobenzylaminocarbonyl)-L-prolyl]-2-(4-fluorophenoxyacetyl)pyrrolidine] | 99% | 0.1 nM | 0% | 0% | 0 | 0% | 0% | – | – | – | – | – | – |
| O=C(COc1ccccc1)[C@@H]1CCCN1C(=O)[C@@H]1CCCN1C(=O)NCc1ccc(Cl)cc1 [Compound 30, (2S)-1-[N-(4-Chlorobenzylaminocarbonyl)-L-prolyl]-2-(phenoxyacetyl)pyrrolidine] | 99% | 0.6 nM | 0% | 0% | 0 | 0% | 0% | – | – | – | – | – | – |
| CCCCCCCC(=O)N1CCC[C@H]1C(=O)N1CCC[C@H]1C(=O)COc1ccccc1 [Compound 31, (2S)-1-(N-Octanoyl-L-prolyl)-2-(phenoxyacetyl)pyrrolidine] | 97% | 4.5 nM | 0% | 0% | 0 | 0% | 0% | – | – | – | – | – | – |
| O=C(COCc1ccccc1)[C@@H]1CCCN1C(=O)[C@@H]1CCCN1C(=O)NCc1ccccc1 [Compound 32] | 96% | 1 nM | 0% | 0% | 0 | 0% | 0% | – | – | – | – | – | – |
